Experimental data from article PMC3804772, “Rational Design, Synthesis, and Biological Evaluation of Third Generation α-Noscapine Analogues as Potent Tubulin Binding Anti-Cancer Agents” (PLoS ONE, 2013).

Columns and labels:
tubulin = molecular target: T1, tubulin (Bos taurus, UniProt P81947+Q6B856); experiment: Tubulin binding assay (quenching of intrinsic tryptophan fluorescence); parameters: species or system bovine; conditions: for Kd: 2 µM tubulin, PEM buffer pH 6.8, 37 °C, 45 min, mean ± S.D.; for Experimental ΔGbind: calculated from KD, ΔGbind = RT ln KD, T = 298 K
T1 construct: Tubulin devoid of microtubule-associated proteins (MAPs) was purified from bovine brain; from tissue; host or cells: bovine brain
T1 sequence (Q6B856 whole entry): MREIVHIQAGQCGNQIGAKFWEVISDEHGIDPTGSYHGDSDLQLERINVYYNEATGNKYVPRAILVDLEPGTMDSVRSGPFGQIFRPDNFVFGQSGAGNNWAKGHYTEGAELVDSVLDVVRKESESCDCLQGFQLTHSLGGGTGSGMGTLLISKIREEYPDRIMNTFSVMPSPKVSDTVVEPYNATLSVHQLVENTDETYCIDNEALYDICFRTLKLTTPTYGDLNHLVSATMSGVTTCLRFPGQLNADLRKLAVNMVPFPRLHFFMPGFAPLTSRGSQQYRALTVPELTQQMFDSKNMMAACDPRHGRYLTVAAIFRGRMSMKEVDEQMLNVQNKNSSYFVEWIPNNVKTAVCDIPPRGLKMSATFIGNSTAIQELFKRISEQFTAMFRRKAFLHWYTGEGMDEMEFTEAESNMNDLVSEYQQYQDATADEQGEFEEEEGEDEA
T1 sequence (P81947 whole entry): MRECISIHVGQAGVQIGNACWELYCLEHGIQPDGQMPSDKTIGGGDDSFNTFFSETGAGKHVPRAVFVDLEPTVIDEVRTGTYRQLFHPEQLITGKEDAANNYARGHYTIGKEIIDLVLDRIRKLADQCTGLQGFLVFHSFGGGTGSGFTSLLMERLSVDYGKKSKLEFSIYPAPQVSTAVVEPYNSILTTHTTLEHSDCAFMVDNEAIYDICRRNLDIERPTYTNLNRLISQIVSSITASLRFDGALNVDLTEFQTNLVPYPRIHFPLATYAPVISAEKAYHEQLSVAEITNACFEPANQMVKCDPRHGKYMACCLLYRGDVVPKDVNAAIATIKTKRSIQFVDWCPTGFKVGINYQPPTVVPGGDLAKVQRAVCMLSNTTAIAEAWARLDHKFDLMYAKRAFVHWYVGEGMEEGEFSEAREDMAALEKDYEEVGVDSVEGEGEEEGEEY
Procedure: Tubulin devoid of microtubule-associated proteins (MAPs) was purified from bovine brain by cycles of temperature-dependent polymerization and depolymerization as described previously followed by phosphocellulose chromatography. The concentration of the tubulin was determined by the method of Bradford using BSA as the standard. Purified tubulin was quickly frozen as drops in liquid nitrogen and stored at - 80 °C until used.
Noscapinoids quench the […] intrinsic tryptophan fluorescence of tubulin in a concentration-dependent fashion as described previously. This has allowed an easy method for measuring the tubulin-noscapinoids interactions. Briefly, the compounds 5a, 6a-j (0-200 µM) were incubated with 2 µM tubulin in PEM buffer (100 mM PIPES, pH 6.8, 3 mM MgSO4, and 1 mM EGTA) at 37 °C for 45 min. After incubation, the samples were excited at 295 nm. The relative intrinsic fluorescence intensity of the tubulin was then monitored in the absence and presence of the compound 5a, 6a-j using a Varian Cary Eclipse Fluorescence Spectrophotometer (Agilent Technologies, CA, USA). The emission readings were recorded at 335 nm. We used a 0.3 cm path-length cuvette to minimize the inner filter effects caused by the absorbance of the noscapinoids. In addition, the inner filter effects were corrected using a formula F corrected = F observed·antilog [(A ex + A em)/2], where A ex is the absorbance at the excitation wavelength and A em is the absorbance at the emission wavelength. The equilibrium dissociation constant (KD) was determined by the formula: 1/a = KD/[free ligand] + 1, where a is the fractional occupancy and [free ligand] is the concentration of free ligand. The fractional occupancy (a) was determined by the formula a = ΔF/ΔF max, where ΔF is the change in fluorescence intensity when tubulin and its ligand are in equilibrium and ΔF max is the value of maximum fluorescence change when tubulin is completely bound with its ligand. ΔF max was calculated by plotting 1/ΔF versus 1/ligand, using total ligand concentration as the first estimate of free ligand concentration. Three independent experiments were performed for each noscapinoid.

[1] = tested on: human lymphoblast cell line (CEM); experiment: In vitro cell proliferation assay (SRB), CEM; format: cell-based; conditions: 72 h, mean ± S.D.
Procedure: (§1) The cell proliferation assay was performed in 96-well plates as described previously. A panel of four cancer cell lines of different tissues of origins, namely: human lung adenocarcinoma epithelial cell line (A549), human lymphoblast cell line (CEM), human cervix cell line (HeLa) and human breast epithelial cell line (MCF-7) were studied. These cell lines were obtained from the National Repository of Animal Cell Culture, National Centre for Cell Sciences, Pune (NCCS), India. Briefly, 2 x10^3 cells were seeded in each well and were incubated with gradient concentrations of 5a, 6a-j compounds for 72 h. The cells were then fixed with 50% trichloroacetic acid and stained with 0.4% sulforhodamine B (SRB) dissolved in 1% acetic acid. Cells were then washed with1% acetic acid to remove excess (unbound) SRB. The protein-bound SRB was dissolved with 10 mM Tris base and the absorbance at 564 nm was determined using a SPECTRAmax PLUS 384 microplate spectrophotometer.

[2] = tested on: human cervix cell line (HeLa); experiment: In vitro cell proliferation assay (SRB), HeLa; format: cell-based; conditions: 72 h, mean ± S.D.
Procedure: as §1

[3] = tested on: human lung adenocarcinoma epithelial cell line (A549); experiment: In vitro cell proliferation assay (SRB), A549; format: cell-based; conditions: 72 h, mean ± S.D.
Procedure: as §1

[4] = tested on: human breast epithelial cell line (MCF-7); experiment: In vitro cell proliferation assay (SRB), MCF-7; format: cell-based; conditions: MCF7, 72 h, mean ± S.D.
Procedure: as §1

MCF-7 cells = experiment: Cell cycle analysis by flow cytometry (propidium iodide); format: cell-based, human; conditions: MCF-7, 25 µM
Procedure: The flow cytometric evaluation of the cell cycle status was performed as described previously. Briefly, cells (2 x 10^6) treated with the noscapinoids up to 72 h were centrifuged, washed twice with cold PBS, and fixed in 70% ethanol. Tubes containing the cell pellets were stored at 4 °C for minimum of 24 h. Cells were then centrifuged at 1000 x g for 10 min and the supernatant was discarded. The pellets were washed twice with 5 ml of PBS and then stained with 0.5 ml of propidium iodide (0.1% of Pl + 0.6% Triton-X in PBS) and 0.5 ml of RNase A (2 mg/ml) for 45 minutes in dark. Samples were then analyzed on a FACS Calibur flow cytometer ([…]).

| Kd (tubulin) | Experimental ΔGbind (tubulin) | IC50 [2] | IC50 [3] | IC50 [4] | melting point | Compound | IC50 [1] | Cell cycle parameters % G0/G1, 24 hours (MCF-7 cells) | Cell cycle parameters % G2/M, 24 hours (MCF-7 cells) | Cell cycle parameters % S, 24 hours (MCF-7 cells) | Cell cycle parameters % Sub-G1, 24 hours (MCF-7 cells) | Cell cycle parameters % G0/G1, 72 hours (MCF-7 cells) | Cell cycle parameters % G2/M, 72 hours (MCF-7 cells) | Cell cycle parameters % S, 72 hours (MCF-7 cells) | Cell cycle parameters % Sub-G1, 72 hours (MCF-7 cells) |
| --- | --- | --- | --- | --- | --- | --- | --- | --- | --- | --- | --- | --- | --- | --- | --- |
| 79 ± 8 µM | -5.602 kcal/mol | 22.3 ± 1.2 µM | 45.4 ± 2.5 µM | 36 ± 1.9 µM | 155 °C | COC(=O)CN1CCc2cc3c(c(OC)c2[C@@H]1[C@H]1OC(=O)c2c1ccc(OC)c2OC)OCO3 [Compound 6i, Methyl 2-((R)-5-((S)-4,5-dimethoxy-3-oxo-1,3-dihydroisobenzofuran-1-yl)-4-methoxy-7,8-dihydro-[1,3]dioxolo[4,5-g]isoquinolin-6(5H)-yl)acetate] | 9.5 ± 0.7 µM | 19.57% | 63.38% | 4.62% | 12.25% | 14.37% | 37.15% | 6.43% | 40.18% |
|  |  | 15.8 ± 0.5 µM | 28 ± 1.5 µM | 25.3 ± 1.2 µM | 179 °C | COc1ccc2c(c1OC)C(=O)O[C@@H]2[C@H]1c2c(cc3c(c2OC)OCO3)CCN1CC(C)=O [Compound 6h, (S)-6,7-dimethoxy-3-((R)-4-methoxy-6-(2-oxopropyl)-5,6,7,8-tetrahydro-[1,3]dioxolo[4,5-g]isoquinolin-5-yl) isobenzofuran-1(3H)-one] | 6.9 ± 0.5 µM | 12.25% | 68.58% | 5.92% | 11.37% | 7.19% | 36.18% | 6.28% | 48.73% |
|  |  | 28.3 ± 2.1 µM | 61.3 ± 3.1 µM | 45.8 ± 2.2 µM | 60 °C | COc1cccc(CN2CCc3cc4c(c(OC)c3[C@@H]2[C@H]2OC(=O)c3c2ccc(OC)c3OC)OCO4)c1 [Compound 6g, (S)-6,7-dimethoxy-3-((R)-4-methoxy-6-(3-methoxybenzyl)-5,6,7,8-tetrahydro-[1,3]dioxolo[4,5-g]isoquinolin-5-yl) isobenzofuran-1(3H)-one] | 11.9 ± 0.8 µM | 20.94% | 62.28% | 4.08% | 10.86% | 12.76% | 37.93% | 8.07% | 40.29% |
|  |  | 17.9 ± 0.9 µM | 33.5 ± 1.7 µM | 28.7 ± 0.8 µM | 66 °C | COc1ccc(CN2CCc3cc4c(c(OC)c3[C@@H]2[C@H]2OC(=O)c3c2ccc(OC)c3OC)OCO4)cc1 [Compound 6d, (S)-6,7-dimethoxy-3-((R)-4-methoxy-6-(4-methoxybenzyl)-5,6,7,8-tetrahydro[1,3]dioxolo[4,5-g]isoquinolin-5-yl)isobenzofuran-1(3H)-one] | 7.7 ± 0.3 µM | 22.73% | 59.41% | 4.62% | 7.27% | 8.29% | 36.18% | 7.83% | 45.38% |
| 68 ± 0.7 µM | -5.691 kcal/mol | 20.9 ± 1.8 µM | 41.6 ± 2.1 µM | 33.6 ± 1.3 µM |  | COc1ccc2c(c1OC)C(=O)O[C@@H]2[C@@H]1NCCc2cc3c(c(OC)c21)OCO3 [Compound 5a, (S)-6,7-dimethoxy-3-((R)-4-methoxy-5,6,7,8-tetrahydro[1,3]dioxolo[4,5-g]isoquinolin-5-yl)isobenzofuran-1(3H)-one] | 8.9 ± 0.6 µM | 13.47% | 66.37% | 4.08% | 8.46% | 10.74% | 39.25% | 7.08% | 41.57% |
|  |  | 19.4 ± 1.4 µM | 37.7 ± 1.8 µM | 31.2 ± 1.5 µM | 64 °C | COc1ccc2c(c1OC)C(=O)O[C@@H]2[C@H]1c2c(cc3c(c2OC)OCO3)CCN1Cc1ccccc1 [Compound 6a, (S)-3-((R)-6-benzyl-4-methoxy-5,6,7,8-tetrahydro-[1,3]dioxolo[4,5-g]isoquinolin-5-yl)-6,7-dimethoxyisobenzofuran-1(3H)-one] | 8.3 ± 0.4 µM | 16.28% | 63.18% | 4.94% | 8.12% | 9.06% | 37.72% | 7.39% | 44.82% |
|  |  | 17.3 ± 0.7 µM | 32.1 ± 1.6 µM | 27.8 ± 1.3 µM | 62 °C | COc1ccc2c(c1OC)C(=O)O[C@@H]2[C@H]1c2c(cc3c(c2OC)OCO3)CCN1Cc1cccc(Cl)c1 [Compound 6e, (S)-3-((R)-6-(3-chlorobenzyl)-4-methoxy-5,6,7,8-tetrahydro-[1,3]dioxolo[4,5-g]isoquinolin-5-yl)-6,7-dimethoxyisobenzofuran-1(3H)-one] | 7.5 ± 0.6 µM | 12.84% | 68.42% | 4.57% | 8.17% | 7.02% | 38.52% | 6.83% | 45.42% |
|  |  | 21.2 ± 2.1 µM | 42.4 ± 2.3 µM | 34.1 ± 1.6 µM | 76 °C | COc1ccc2c(c1OC)C(=O)O[C@@H]2[C@H]1c2c(cc3c(c2OC)OCO3)CCN1Cc1ccc(Br)cc1 [Compound 6b, 5(S)-3-((R)-6-(4-bromobenzyl)-4-methoxy-5,6,7,8-tetrahydro-[1,3]dioxolo[4,5-g]isoquinolin-5-yl)-6,7-dimethoxyisobenzofuran-1(3H)-one] | 9 ± 0.4 µM | 19.42% | 64.42% | 4.16% | 7.37% | 11.38% | 35.84% | 7.53% | 43.18% |
